# Assay results reported in article PMC11672292, “Discovery of Balasubramide Derivative with Tissue‐Specific Anti‐Inflammatory Activity Against Acute Lung Injury by Targeting VDAC1” (Advanced Science, 2024).
# Like-named read-outs stand apart in the source and are kept apart here.
# Key:
# [1] = biological target: T1, VDAC2 (Mus musculus, UniProt Q60930); assay: Cellular thermal shift assay (CETSA) in RAW264.7 cells; assay type: binding; conditions: 20 µM
# T1 construct: endogenous in cells; host or cells: RAW264.7
# T1 sequence (Q60930 1-295): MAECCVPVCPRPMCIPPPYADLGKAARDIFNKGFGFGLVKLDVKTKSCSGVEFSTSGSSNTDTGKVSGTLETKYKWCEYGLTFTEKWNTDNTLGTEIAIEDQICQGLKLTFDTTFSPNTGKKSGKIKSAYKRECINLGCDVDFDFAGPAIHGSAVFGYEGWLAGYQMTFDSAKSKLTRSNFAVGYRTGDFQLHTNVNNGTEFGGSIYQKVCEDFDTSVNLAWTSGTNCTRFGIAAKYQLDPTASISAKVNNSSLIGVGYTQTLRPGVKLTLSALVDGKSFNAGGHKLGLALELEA
# Protocol: For CETSA experiments, RAW264.7 cells were incubated with DMSO or (+)3C‐20 (20 µM) in DMEM for 3 h at standard culture conditions. After washed twice with PBS, the cells were collected and divided equally into 12 groups using PBS containing protease and phosphatase inhibitor cocktail. All the samples were heated in a module with pre‐set temperature (37–81 °C) for 3 min, and balanced at 25 °C for another 3 min. Samples were freeze‐thawed with liquid nitrogen three times to completely lyse cells. The 60 µL supernatant containing soluble protein was isolated by centrifugation (13 800 × g, 20 min, 4 °C), mixed with 20 µL laemmli buffer (4 ×), and heated for 10 min at 95 °C. Eventually, the samples were separated by 10% SDS‐PAGE gels for immunoblotting analysis. For ITDRF experiments, the procedures and details were similar to CETSA experiments. In brief, the RAW264.7 cells were seeded in 6‐well plates, incubated with different concentrations of (+)3C‐20, and heated at a designed temperature.
# [2] = test system: mice; assay: Subacute toxicity, 28 consecutive days of administration; assay type: in vivo
# [3] = Pharmacokinetics and tissue distribution after single intravenous administration; assay type: in vivo, mouse; conditions: mice; for Vd: read-out: VdSS; for Kp: read-out: Tissues/plasma ratio
# Protocol: Pharmacokinetic studies were performed as previously described.^[ [63] ^] Briefly, ICR mice were fasted without water for 16 h before drug administration and allowed access to food and water freely after administration. After given a single intravenous administration of (+)3C‐20 (10 mg kg^−1), mice were anesthetized with isoflurane, and blood samples were collected through jugular vein at different time points (0, 0.083, 0.25, 0.5, 1, 2, 4, 6, 8, 24 h), as well as at different time points (0.5, 2, 6, 24 h) mice were euthanized and brain, heart, liver, spleen, lung, and kidney were collected. Blood samples were collected in tubes containing sodium heparin and centrifuged at 5000 rpm at 4 °C for 10 min to prepare plasma, tissues were cleaned in prechilled saline and homogenized to be tested, and all samples were stored at […]. LC‐MS/MS was performed to determine the concentrations of (+)3C‐20 in the plasma and tissues of the mice and to calculate the related pharmacokinetic parameters, which were then used to investigate the pharmacokinetic characteristics and tissue distribution of (+)3C‐20 in mice.
# [4] = in vivo; conditions: mouse, iv
# From the text: To test the safety of (+)3C‐20 in mice, as previously reported,^[ [31] ^] we estimated the acute toxicity of (+)3C‐20 in mice using a sequential method.
# [5] = ICR, mouse, brain, iv, single i.v. 10 mg/kg, read-out: Concentration of (+)3C-20, Brain
# [6] = ICR, mouse, heart, iv, single i.v. 10 mg/kg, read-out: Concentration of (+)3C-20, Heart
# [7] = ICR, mouse, iv, single i.v. 10 mg/kg, Blood
# [8] = ICR, mouse, iv, single i.v. 10 mg/kg, Brain
# [9] = ICR, mouse, iv, single i.v. 10 mg/kg, Heart
# [10] = ICR, mouse, iv, single i.v. 10 mg/kg, Kidney
# [11] = ICR, mouse, iv, single i.v. 10 mg/kg, Liver
# [12] = ICR, mouse, iv, single i.v. 10 mg/kg, Lung
# [13] = ICR, mouse, iv, single i.v. 10 mg/kg, Plasma
# [14] = ICR, mouse, iv, single i.v. 10 mg/kg, Spleen
# [15] = ICR, mouse, kidney, iv, single i.v. 10 mg/kg, read-out: Concentration of (+)3C-20, Kidney
# [16] = ICR, mouse, liver, iv, single i.v. 10 mg/kg, read-out: Concentration of (+)3C-20, Liver
# [17] = ICR, mouse, lung, iv, single i.v. 10 mg/kg, read-out: Concentration of (+)3C-20, Lung
# [18] = ICR, mouse, spleen, iv, single i.v. 10 mg/kg, read-out: Concentration of (+)3C-20, Spleen
smiles,measurement,setting,value
O=C(CCc1ccc(C(F)(F)F)cc1)O[C@@H]1C(=O)NCCc2c([nH]c3ccccc23)[C@H]1c1ccc(C(F)(F)F)cc1 [(+)3C-20],thermal stability of VDAC2 (CETSA),[1],did not improve the thermal stability
same,"effects on the liver (AST, ALT)","[2]; 50 mg kg^−1, 28 days",no harmful effects
same,changes in body weight or relative organ weight,"[2]; 28 consecutive days of administration, 50 mg/kg",did not observe any harmful changes
same,concentration at 0.5 h,[3]; [5],518 ± 66 ng/g
same,concentration at 2 h,[3]; [5],317 ± 86.1 ng/g
same,concentration at 6 h,[3]; [5],113 ± 11.8 ng/g
same,concentration at 0.5 h,[3]; [6],4510 ± 630 ng/g
same,concentration at 2 h,[3]; [6],1270 ± 335 ng/g
same,concentration at 6 h,[3]; [6],123 ± 12.7 ng/g
same,half-life,"[3]; ICR, mouse, iv, i.v. 10 mg kg^−1, serum and plasma, read-out: average half-life (converted)",5.3 ± 0.3 h
same,AUC(0-inf),[3]; [7],3600 ng·h/mL
same,AUC(0-t),[3]; [7],3470 ng·h/mL
same,C0,[3]; [7],3950 ng/mL
same,Cmax,[3]; [7],2340 ng/mL
same,clearance,[3]; [7],46.4 mL/min/kg
same,k el,[3]; [7],3.36e-05 s⁻¹
same,Vd,[3]; [7],12.3 L/kg
same,half-life,"[3]; ICR, mouse, iv, single i.v. 10 mg/kg, Blood, read-out: t1/2 (converted)",5.72 h
same,AUC(0-inf),[3]; [8],3160 ng·h/mL
same,AUC(0-t),[3]; [8],2980 ng·h/mL
same,C0,[3]; [8],610 ng/mL
same,Cmax,[3]; [8],518 ng/mL
same,k el,[3]; [8],3.44e-05 s⁻¹
same,Kp,[3]; [8],0.699
same,half-life,"[3]; ICR, mouse, iv, single i.v. 10 mg/kg, Brain, read-out: t1/2 (converted)",5.57 h
same,AUC(0-inf),[3]; [9],10200 ng·h/mL
same,AUC(0-t),[3]; [9],9980 ng·h/mL
same,C0,[3]; [9],6890 ng/mL
same,Cmax,[3]; [9],4510 ng/mL
same,k el,[3]; [9],0.000178 s⁻¹
same,Kp,[3]; [9],2.34
same,half-life,"[3]; ICR, mouse, iv, single i.v. 10 mg/kg, Heart, read-out: t1/2 (converted)",1.08 h
same,AUC(0-inf),[3]; [10],3980 ng·h/mL
same,AUC(0-t),[3]; [10],3780 ng·h/mL
same,C0,[3]; [10],1960 ng/mL
same,Cmax,[3]; [10],1450 ng/mL
same,k el,[3]; [10],0.000134 s⁻¹
same,Kp,[3]; [10],0.885
same,half-life,"[3]; ICR, mouse, iv, single i.v. 10 mg/kg, Kidney, read-out: t1/2 (converted)",1.44 h
same,AUC(0-inf),[3]; [11],15500 ng·h/mL
same,AUC(0-t),[3]; [11],14900 ng·h/mL
same,C0,[3]; [11],6050 ng/mL
same,Cmax,[3]; [11],5010 ng/mL
same,k el,[3]; [11],0.000145 s⁻¹
same,Kp,[3]; [11],3.5
same,half-life,"[3]; ICR, mouse, iv, single i.v. 10 mg/kg, Liver, read-out: t1/2 (converted)",1.33 h
same,AUC(0-inf),[3]; [12],22200 ng·h/mL
same,AUC(0-t),[3]; [12],22100 ng·h/mL
same,C0,[3]; [12],11700 ng/mL
same,Cmax,[3]; [12],7780 ng/mL
same,k el,[3]; [12],5.39e-05 s⁻¹
same,Kp,[3]; [12],5.17
same,half-life,"[3]; ICR, mouse, iv, single i.v. 10 mg/kg, Lung, read-out: t1/2 (converted)",3.58 h
same,AUC(0-inf),[3]; [13],4770 ng·h/mL
same,AUC(0-t),[3]; [13],4700 ng·h/mL
same,C0,[3]; [13],6280 ng/mL
same,Cmax,[3]; [13],4010 ng/mL
same,clearance,[3]; [13],35.2 mL/min/kg
same,k el,[3]; [13],3.97e-05 s⁻¹
same,Vd,[3]; [13],6.1 L/kg
same,half-life,"[3]; ICR, mouse, iv, single i.v. 10 mg/kg, Plasma, read-out: t1/2 (converted)",4.88 h
same,AUC(0-inf),[3]; [14],9840 ng·h/mL
same,AUC(0-t),[3]; [14],9560 ng·h/mL
same,C0,[3]; [14],6800 ng/mL
same,Cmax,[3]; [14],4370 ng/mL
same,k el,[3]; [14],0.000161 s⁻¹
same,Kp,[3]; [14],2.24
same,half-life,"[3]; ICR, mouse, iv, single i.v. 10 mg/kg, Spleen, read-out: t1/2 (converted)",1.2 h
same,concentration at 0.5 h,[3]; [15],5010 ± 516 ng/g
same,concentration at 2 h,[3]; [15],2840 ± 692 ng/g
same,concentration at 6 h,[3]; [15],299 ± 25.1 ng/g
same,concentration at 0.5 h,[3]; [16],4370 ± 1010 ng/g
same,concentration at 2 h,[3]; [16],1160 ± 434 ng/g
same,concentration at 6 h,[3]; [16],159 ± 51.7 ng/g
same,concentration at 0.5 h,[3]; [17],7780 ± 525 ng/g
same,concentration at 2 h,[3]; [17],2300 ± 281 ng/g
same,concentration at 6 h,[3]; [17],440 ± 50.4 ng/g
same,concentration at 24 h,"[3]; ICR, mouse, lung, iv, single i.v. 10 mg/kg, 24 h, read-out: Concentration of (+)3C-20, Lung",23.8 ± 9.4 ng/g
same,concentration at 0.5 h,[3]; [18],1450 ± 79.6 ng/g
same,concentration at 2 h,[3]; [18],595 ± 192 ng/g
same,concentration at 6 h,[3]; [18],98.7 ± 60 ng/g
same,lung tissue/plasma ratio in various organs,[3]; i.v. 10 mg kg^−1,highest
same,AUMC0-inf,"[3]; single i.v. 10 mg/kg, Blood",15950.5 h·h·ng·mL^-1
same,AUMC0-t,"[3]; single i.v. 10 mg/kg, Blood",11638.5 h·h·ng·mL^-1
same,MRTIV,"[3]; single i.v. 10 mg/kg, Blood",4.425 h
same,Tissues/plasma ratio,"[3]; single i.v. 10 mg/kg, Blood",0.734
same,AUMC0-inf,"[3]; single i.v. 10 mg/kg, Brain",19922 h·h·ng·mL^-1
same,AUMC0-t,"[3]; single i.v. 10 mg/kg, Brain",14234 h·h·ng·mL^-1
same,MRTIV,"[3]; single i.v. 10 mg/kg, Brain",6.3 h
same,AUMC0-inf,"[3]; single i.v. 10 mg/kg, Heart",12176 h·h·ng·mL^-1
same,AUMC0-t,"[3]; single i.v. 10 mg/kg, Heart",10724 h·h·ng·mL^-1
same,MRTIV,"[3]; single i.v. 10 mg/kg, Heart",1.2 h
same,AUMC0-inf,"[3]; single i.v. 10 mg/kg, Kidney",6846 h·h·ng·mL^-1
same,AUMC0-t,"[3]; single i.v. 10 mg/kg, Kidney",5185 h·h·ng·mL^-1
same,MRTIV,"[3]; single i.v. 10 mg/kg, Kidney",1.72 h
same,AUMC0-inf,"[3]; single i.v. 10 mg/kg, Liver",26259 h·h·ng·mL^-1
same,AUMC0-t,"[3]; single i.v. 10 mg/kg, Liver",21734 h·h·ng·mL^-1
same,MRTIV,"[3]; single i.v. 10 mg/kg, Liver",1.69 h
same,AUMC0-inf,"[3]; single i.v. 10 mg/kg, Lung",54321 h·h·ng·mL^-1
same,AUMC0-t,"[3]; single i.v. 10 mg/kg, Lung",50741 h·h·ng·mL^-1
same,MRTIV,"[3]; single i.v. 10 mg/kg, Lung",2.45 h
same,AUMC0-inf,"[3]; single i.v. 10 mg/kg, Plasma",13980 h·h·ng·mL^-1
same,AUMC0-t,"[3]; single i.v. 10 mg/kg, Plasma",11982 h·h·ng·mL^-1
same,MRTIV,"[3]; single i.v. 10 mg/kg, Plasma",2.91 h
same,AUMC0-inf,"[3]; single i.v. 10 mg/kg, Spleen",12590 h·h·ng·mL^-1
same,AUMC0-t,"[3]; single i.v. 10 mg/kg, Spleen",10456 h·h·ng·mL^-1
same,MRTIV,"[3]; single i.v. 10 mg/kg, Spleen",1.28 h
same,LD50,[4],185 mg/kg
